Experiments:
PDE5A = target: T1, PDE5A (Homo sapiens, UniProt O76074); assay: Phosphodiesterase 5 HTRF cGMP assay; assay type: biochemical; settings: for IC50: means ± S.D. (n = 4), read-out: PDE5 IC50; for inhibition at 10 µM: read-out: PDE5 % Inhibition at 10 μM
T1 construct: purchased BPS Bioscience, San Diego, CA, USA
Description: All the synthesized acridine derivatives were tested for their in vitro ability to inhibit PDE5A at a screening dose of 10 µM.
The enzyme activities of phosphodiesterase 5 (PDE5) were measured using an HTRF cGMP assay kit (Cisbio, Codolet, France). […] Afterward, the HTRF reagent (cGMP-d2 and anti-cGMP-cryptate) was added for 1 h at 25 °C, and PDE activity was assayed on an HTRF reader (Tecan Infinite F200 Pro).

[1] = tested on: panel of 60 human tumor cell lines; assay: NCI 60-cell line one-dose screen (mean); assay type: cell-based; settings: mean of the 60 cell lines, single dose 10^−5 M, read-out: Mean % Growth Inhibition
Method in brief: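 Primary NCI screen: one concentration (10^−5 M) applied to all 60 human cancer cell lines from 9 tissue types; growth inhibition reported as a percentage.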

CCRF-CEM = assay: NCI-60 one-dose screen; assay type: cell-based; settings: Homo sapiens, Leukemia panel, single dose 10^−5 M, read-out: Growth inhibition %
A498 = assay: NCI-60 one-dose screen; assay type: cell-based; settings: Homo sapiens; A498, Renal Cancer panel; single dose 10^−5 M; read-out: Growth inhibition %
HCT-15 = assay: NCI-60 one-dose screen; assay type: cell-based; settings: Homo sapiens; HCT-15, Colon Cancer panel; single dose 10^−5 M; read-out: Growth inhibition %
K-562 = assay: NCI-60 one-dose screen; assay type: cell-based; settings: Homo sapiens, K562; K-562, Leukemia panel; single dose 10^−5 M; read-out: Growth inhibition %
KM12 = assay: NCI-60 one-dose screen; assay type: cell-based; settings: Homo sapiens; KM12, Colon Cancer panel; single dose 10^−5 M; read-out: Growth inhibition %
MDA-MB-231/ATCC = assay: NCI-60 one-dose screen; assay type: cell-based; settings: Homo sapiens, Breast Cancer panel, single dose 10^−5 M, read-out: Growth inhibition %
MDA-MB-435 = assay: NCI-60 one-dose screen; assay type: cell-based; settings: Homo sapiens; MDA-MB-435, Melanoma panel; single dose 10^−5 M; read-out: Growth inhibition %
MOLT-4 = assay: NCI-60 one-dose screen; assay type: cell-based; settings: Homo sapiens; MOLT-4, Leukemia panel; single dose 10^−5 M; read-out: Growth inhibition %
NCI-H226 = assay: NCI-60 one-dose screen; assay type: cell-based; settings: Homo sapiens; NCI-H226, Non-small cell lung panel; single dose 10^−5 M; read-out: Growth inhibition %
NCI-H460 = assay: NCI-60 one-dose screen; assay type: cell-based; settings: Homo sapiens; NCI-H460, Non-small cell lung panel; single dose 10^−5 M; read-out: Growth inhibition %
OVCAR-3 = assay: NCI-60 one-dose screen; assay type: cell-based; settings: Homo sapiens; OVCAR-3, Ovarian Cancer panel; single dose 10^−5 M; read-out: Growth inhibition %
OVCAR-5 = assay: NCI-60 one-dose screen; assay type: cell-based; settings: Homo sapiens; OVCAR-5, Ovarian Cancer panel; single dose 10^−5 M; read-out: Growth inhibition %
OVCAR-8 = assay: NCI-60 one-dose screen; assay type: cell-based; settings: Homo sapiens; OVCAR-8, Ovarian Cancer panel; single dose 10^−5 M; read-out: Growth inhibition %
RPMI-8226 = assay: NCI-60 one-dose screen; assay type: cell-based; settings: Homo sapiens; RPMI-8226, Leukemia panel; single dose 10^−5 M; read-out: Growth inhibition %
RXF 393 = assay: NCI-60 one-dose screen; assay type: cell-based; settings: Homo sapiens; RXF 393, Renal Cancer panel; single dose 10^−5 M; read-out: Growth inhibition %
SF-539 = assay: NCI-60 one-dose screen; assay type: cell-based; settings: Homo sapiens; SF-539, CNS Cancer panel; single dose 10^−5 M; read-out: Growth inhibition %
SK-MEL-28 = assay: NCI-60 one-dose screen; assay type: cell-based; settings: Homo sapiens; SK-MEL-28, Melanoma panel; single dose 10^−5 M; read-out: Growth inhibition %
SK-OV-3 = assay: NCI-60 one-dose screen; assay type: cell-based; settings: Homo sapiens; SK-OV-3, Ovarian Cancer panel; single dose 10^−5 M; read-out: Growth inhibition %
SNB-19 = assay: NCI-60 one-dose screen; assay type: cell-based; settings: Homo sapiens; SNB-19, CNS Cancer panel; single dose 10^−5 M; read-out: Growth inhibition %
TK-10 = assay: NCI-60 one-dose screen; assay type: cell-based; settings: Homo sapiens; TK-10, Renal Cancer panel; single dose 10^−5 M; read-out: Growth inhibition %
UO-31 = assay: NCI-60 one-dose screen; assay type: cell-based; settings: Homo sapiens; UO-31, Renal Cancer panel; single dose 10^−5 M; read-out: Growth inhibition %
SF-268 = assay: NCI-60 one-dose screen; assay type: cell-based; settings: Homo sapiens; SF-268, CNS Cancer panel; single dose 10^−5 M; read-out: Growth inhibition %
LOX IMVI = assay: NCI-60 one-dose screen; assay type: cell-based; settings: Homo sapiens, Melanoma panel, single dose 10^−5 M, read-out: Growth inhibition %
IGROV1 = assay: NCI-60 one-dose screen; assay type: cell-based; settings: Homo sapiens, IGROV-1; IGROV1, Ovarian Cancer panel; single dose 10^−5 M; read-out: Growth inhibition %
HCT-116 = assay: MTT cell proliferation assay, HCT-116; settings: for % Inhibition at 10 µM: 72 h MTT, means ± SD; for IC50: read-out: IC50 μM, 72 h MTT, means ± SD, three experiments
CCD-966SK = assay: MTT cell proliferation assay, CCD-966SK; settings: CCD966SK skin fibroblast; 10 µM; 72 h MTT

Structure (SMILES)	IC50 (PDE5A)	inhibition at 10 µM (PDE5A)	inhibition at 10 µM [1]	inhibition at 10 µM (CCRF-CEM)	inhibition at 10 µM (A498)	inhibition at 10 µM (HCT-15)	inhibition at 10 µM (K-562)	inhibition at 10 µM (KM12)	inhibition at 10 µM (MDA-MB-231/ATCC)	inhibition at 10 µM (MDA-MB-435)	inhibition at 10 µM (MOLT-4)	inhibition at 10 µM (NCI-H226)	inhibition at 10 µM (NCI-H460)	inhibition at 10 µM (OVCAR-3)	inhibition at 10 µM (OVCAR-5)	inhibition at 10 µM (OVCAR-8)	inhibition at 10 µM (RPMI-8226)	inhibition at 10 µM (RXF 393)	inhibition at 10 µM (SF-539)	inhibition at 10 µM (SK-MEL-28)	also measured
Clc1ccc(CNc2c3ccccc3nc3ccccc23)cc1 [Compound 13, Acridin-9-yl-(4-chlorobenzyl)-amine]	> 10 µM	45.3 ± 3.99%	59.4%	69.8%	79.2%	76.7%	95.7%	64.4%	45.2%	39.3%	95.4%	24.5%	83.6%	48.9%	49.5%	68.1%	92%	70.3%	69.7%	19.7%	inhibition at 10 µM (SK-OV-3): 40%; inhibition at 10 µM (SNB-19): 56.9%; inhibition at 10 µM (TK-10): 50.3%; inhibition at 10 µM (UO-31): 73%; inhibition at 10 µM (SF-268): 32.1%; inhibition at 10 µM (LOX IMVI): 77%; inhibition at 10 µM (IGROV1): 68.3%; % Inhibition at 10 µM (HCT-116): 11.67 ± 4.59%; % Inhibition at 10 µM (CCD-966SK): 2.73 ± 4.11%
c1coc(CNc2c3ccccc3nc3ccccc23)c1 [Compound 14, Acridin-9-yl-furan-2-ylmethyl-amine]	7.43 ± 2.69 µM	56.5 ± 7.38%	38.4%	42.9%	79.9%	55.8%	55.3%	14.5%	39.5%	12.4%	72.8%	37.1%	43.5%	3.11%	23.6%	52.5%	43.4%	38.5%	34.1%	2.28%	inhibition at 10 µM (SK-OV-3): 29.1%; inhibition at 10 µM (SNB-19): 37.2%; inhibition at 10 µM (TK-10): 11.6%; inhibition at 10 µM (UO-31): 60.5%; inhibition at 10 µM (SF-268): 14.3%; inhibition at 10 µM (LOX IMVI): 62.9%; inhibition at 10 µM (IGROV1): 38.1%; % Inhibition at 10 µM (HCT-116): 58.83 ± 1.72%; IC50 (HCT-116): 8.41 ± 0.19 µM; % Inhibition at 10 µM (CCD-966SK): 33.89 ± 0.85%
Fc1cccc(CNc2c3ccccc3nc3ccccc23)c1F [Compound 20, Acridin-9-yl-(2,3-difluorobenzyl)-amine]	7.25 ± 2.21 µM	57.9 ± 6.04%	40.7%	37.6%	101%	60.5%	56.6%	13.1%	41.8%	12.7%	71.6%	27.1%	52%	13.9%	26.8%	49.2%	47.1%	40.5%	44.5%	3.12%	inhibition at 10 µM (SK-OV-3): 24.1%; inhibition at 10 µM (SNB-19): 41.5%; inhibition at 10 µM (TK-10): 10.8%; inhibition at 10 µM (UO-31): 60%; inhibition at 10 µM (SF-268): 16.6%; inhibition at 10 µM (LOX IMVI): 60.8%; inhibition at 10 µM (IGROV1): 47.3%; % Inhibition at 10 µM (HCT-116): 58.56 ± 3.21%; IC50 (HCT-116): 4.96 ± 0.02 µM; % Inhibition at 10 µM (CCD-966SK): 40.30 ± 3.56%
Fc1ccc(CNc2c3ccccc3nc3ccccc23)c(F)c1 [Compound 21, Acridin-9-yl-(2,4-difluorobenzyl)-amine]	> 10 µM	31.9 ± 8.01%	56.4%	46.1%	104%	71.3%	77.5%	40%	55.6%	33.5%	76.2%	45.2%	80%	29.8%	48.3%	59.8%	71.7%	65.5%	67.6%	9.61%	inhibition at 10 µM (SK-OV-3): 40.2%; inhibition at 10 µM (SNB-19): 58.5%; inhibition at 10 µM (TK-10): 39%; inhibition at 10 µM (UO-31): 69.7%; inhibition at 10 µM (SF-268): 31.4%; inhibition at 10 µM (LOX IMVI): 78.5%; inhibition at 10 µM (IGROV1): 64.3%; % Inhibition at 10 µM (HCT-116): 67.37 ± 0.67%; IC50 (HCT-116): 3.95 ± 0.82 µM; % Inhibition at 10 µM (CCD-966SK): 30.94 ± 0.86%
c1ccc(CCNc2c3ccccc3nc3ccccc23)cc1 [Compound 23, Acridin-9-yl-phenethyl-amine]	6.68 ± 1.1 µM	57.3 ± 3.58%	60.7%	46.7%	105%	76.7%	75%	42.6%	56.7%	44.7%	75.4%	43.7%	84.7%	29%	46.6%	61.7%	80.5%	64.7%	71.9%	32.3%	inhibition at 10 µM (SK-OV-3): 37.4%; inhibition at 10 µM (SNB-19): 60.5%; inhibition at 10 µM (TK-10): 46.8%; inhibition at 10 µM (UO-31): 75.8%; inhibition at 10 µM (SF-268): 33.5%; inhibition at 10 µM (LOX IMVI): 82.4%; inhibition at 10 µM (IGROV1): 72%; % Inhibition at 10 µM (HCT-116): 40.12 ± 0.11%; % Inhibition at 10 µM (CCD-966SK): 11.36 ± 7.38%
c1csc(-c2ccc(CNc3c4ccccc4nc4ccccc34)cc2)c1 [Compound 24, Acridin-9-yl-(4-thiophen-2-yl-benzyl)-amine]	> 10 µM	42.9 ± 5.35%	96.9%	97.4%	102%	166%	140%	73.7%	61.7%	183%	98%	31%	87.1%	90.5%	32.9%	44.4%	144%	114%	87.5%	186%	inhibition at 10 µM (SK-OV-3): 35%; inhibition at 10 µM (SNB-19): 53.8%; inhibition at 10 µM (TK-10): 34.9%; inhibition at 10 µM (UO-31): 72%; inhibition at 10 µM (SF-268): 37.1%; inhibition at 10 µM (LOX IMVI): 191%; inhibition at 10 µM (IGROV1): 90%; % Inhibition at 10 µM (HCT-116): 57.14 ± 3.10%; IC50 (HCT-116): 7 ± 0.56 µM; % Inhibition at 10 µM (CCD-966SK): 47.41 ± 2.48%

Reference: paper PMC9866191, “Novel 9-Benzylaminoacridine Derivatives as Dual Inhibitors of Phosphodiesterase 5 and Topoisomerase II for the Treatment of Colon Cancer” (Molecules, 2023)
